The text below walks through data of patent publication US4659734A, “Olinecarboxylic acid derivatives” (Nippon Shinyaku Co., Ltd., priority 1983, dated 1987).

The subject of assay [1] is Acimetobacter calcoaceticus. The assay can be described thus: Mouse intraperitoneal infection, survival after one week. The class given is in vivo, ddY strain mice. Particulars: po, 1 × 10^7 per mouse, one dose per os 2 h after infection. On the procedure:
(§1) ddY--Strain mice (male; body weight 20±1 grams) of SPF were innoculated with the bacteria set forth in Table 2 by administration of a supension of the bacterial in 4% mucin solution into the abdominal cavity. A compound of the invention was given one time per os two hours after the infection, and, from the survival rate after one week. 50% effective doses (ED50) were calculated by the Behrens-Karber method.

Assay [2] relates to Pseudomonas aeruginosa E-2. The description is as above. Particulars: E2, po; Pseudomonas aeruginosa E-2, 2 × 10^5 per mouse; one dose per os 2 h after infection; Behrens-Karber. The class given is in vivo, ddY strain mice. The method, then: as §1
Another assay relates to Proteus mirabilis 181. Described as above. The class given is in vivo, ddY strain mice. Particulars: po; Proteus mirabilis 181, 2 × 10^7 per mouse; one dose per os 2 h after infection. On the procedure:
as §1

Assay [3] deals with Staphylococcus aureus Smith. Described as above. The assay is classed as in vivo, ddY strain mice. Particulars: po, 3 × 10^6 per mouse, one dose per os 2 h after infection. On the procedure:
as §1

The test system of assay [4] is Klebsiella pneumoniae K-1966. The description is as above. Particulars: K1966, po; Klebsiella pneumoniae K-1966, 3 × 10^3 per mouse; one dose per os 2 h after infection. The class given is in vivo, ddY strain mice. The method, then:
as §1

The next assay has as its system Serracia marcescens T-55. Described as above. The assay is classed as in vivo, ddY strain mice. Conditions: po; Serracia marcescens T-55, 5 × 10^6 per mouse; one dose per os 2 h after infection. The method, then: as §1
The test system of a further assay is Escherichia coli KC-14. Described as above. The assay is classed as in vivo, ddY strain mice. Particulars: KC14, po; Escherichia coli KC-14, 5 × 10^4 per mouse; one dose per os 2 h after infection. On the procedure:
as §1

The test system of assay [5] is Bacillus subtilis ATCC 6633. In words: Minimum growth inhibiting concentration, Japan Chemotherapeutic Society method. The assay is classed as cell-based. Conditions: ATCC6633; Bacillus subtilis ATCC 6633, Gram +; 5% horse blood added agar medium; read-out: Minimum Growth Inhibiting Concn. On the procedure:
(§2) The Antibacterial activity of the compounds of Examples 14, 13, 22b, 21 and 15 was determined in accordance with the method of Japan Chemotherapeutic Society (cf. Nippon Kagaku Ryoho Gakkai Shi, volume 29, number 1, pages 76 to 79, 1981) and the results are reported in Table 1, which follows. | *5% Horse blood added agar medium for sensitivity measurement being used.

Assay [6] has as its system Streptococcus pneumoniae Type I. The description is as above. Conditions: Gram +, 5% horse blood added agar medium, read-out: Minimum Growth Inhibiting Concn. The assay is classed as cell-based. On the procedure: as §2
Assay [7] concerns Streptococcus pyogenes S-23. The description is as above. The assay is classed as cell-based. Conditions: S23; Streptococcus pyogenes S-23, Gram +; 5% horse blood added agar medium; read-out: Minimum Growth Inhibiting Concn. The method, then:
as §2

≈ marks a conversion by molar mass, not a printed value.

On to `Cc1csc2c(C(=O)O)c(=O)c3cc(F)c(N4CCN(C)CC4)cc3n12` [Example 22b, 7-fluoro-1-methyl-8-(4-methyl-1-piperazinyl)-5-oxo-5H-thiazolo(3,2-a)-quinoline-4-carboxylic acid], for which the median effective dose (ED50) was 17.5 mg/kg in assay [1]; 13.1 mg/kg in assay [2]; 13 mg/kg in the assay with Proteus mirabilis 181; 2.4 mg/kg in [3]; 2.7 mg/kg in [4]; 5.4 mg/kg in the assay with Serracia marcescens T-55. Also, it took a dose of 1.1 mg/kg to reach the 50% effect level in the assay on Escherichia coli KC-14 (ED50). The figures for the MIC in assay [5], in [6] and in assay [7] were 0.0008 µg/mL (≈ 0.00213 µM), 0.39 µg/mL (≈ 1.04 µM) and 0.2 µg/mL (≈ 0.533 µM), respectively.
